Reference: patent publication US12473262B2, “Aryl hydrocarbon receptor activators” (Oregon State University, priority 2019, dated 2025)

Target: aryl hydrocarbon receptor (AhR) (Mus musculus (Mouse), UniProt P30561)
Test: AhR ligand screening: AhRE-luciferase reporter in transfected Hepa1 cells
Format: cell-based
Conditions: for Fold @ 1 nM: fold change of luciferase expression at 1 nM test compound relative to vehicle (0.1% DMSO); for Fold @ 100 nM: fold change of luciferase expression at 100 nM test compound relative to vehicle (0.1% DMSO); for Fold @ 10 uM: fold change of luciferase expression at 10 uM test compound relative to vehicle (0.1% DMSO); for Fold relative to benchmark @ 100 nM: luciferase expression at 100 nM test compound relative to 100 nM benchmark compound 11-cl-BBQ
Source text: The AhR is a ligand-activated transcription factor that dimerizes with ARNT to regulate gene expression, and genes that are regulated by AhR ligands have AhR response elements (AhRE) in their promotor regions.
Briefly, Hepa1 cells were transfected with a reporter construct consisting of AhRE linked to luciferase. The addition of AhR ligands to the transfected cells induces luciferase production that is directly proportional to the amount of AhR activation. We used this reporter system to identify novel compounds with AhR-activating properties. Transfected Hepa1 cells were plated at a density of 1×10^4 cells/well in 100 μL of cell culture media in 96 well plates and grown overnight. […] Following incubation with the compounds, the media was removed, and cells were harvested with lysis buffer. The lysates were transferred to opaque 96 well plates, where they were assayed well-by-well for luciferase activity by injection of luciferase assay substrate with a 2 sec mixing time and 15 sec integration period on a Tropix TR717 microplate luminometer. Data were expressed as fold induction of luciferase relative to vehicle (0.1% DMSO) treated cells.

aryl hydrocarbon receptor (AhR), sequence (P30561 10-805): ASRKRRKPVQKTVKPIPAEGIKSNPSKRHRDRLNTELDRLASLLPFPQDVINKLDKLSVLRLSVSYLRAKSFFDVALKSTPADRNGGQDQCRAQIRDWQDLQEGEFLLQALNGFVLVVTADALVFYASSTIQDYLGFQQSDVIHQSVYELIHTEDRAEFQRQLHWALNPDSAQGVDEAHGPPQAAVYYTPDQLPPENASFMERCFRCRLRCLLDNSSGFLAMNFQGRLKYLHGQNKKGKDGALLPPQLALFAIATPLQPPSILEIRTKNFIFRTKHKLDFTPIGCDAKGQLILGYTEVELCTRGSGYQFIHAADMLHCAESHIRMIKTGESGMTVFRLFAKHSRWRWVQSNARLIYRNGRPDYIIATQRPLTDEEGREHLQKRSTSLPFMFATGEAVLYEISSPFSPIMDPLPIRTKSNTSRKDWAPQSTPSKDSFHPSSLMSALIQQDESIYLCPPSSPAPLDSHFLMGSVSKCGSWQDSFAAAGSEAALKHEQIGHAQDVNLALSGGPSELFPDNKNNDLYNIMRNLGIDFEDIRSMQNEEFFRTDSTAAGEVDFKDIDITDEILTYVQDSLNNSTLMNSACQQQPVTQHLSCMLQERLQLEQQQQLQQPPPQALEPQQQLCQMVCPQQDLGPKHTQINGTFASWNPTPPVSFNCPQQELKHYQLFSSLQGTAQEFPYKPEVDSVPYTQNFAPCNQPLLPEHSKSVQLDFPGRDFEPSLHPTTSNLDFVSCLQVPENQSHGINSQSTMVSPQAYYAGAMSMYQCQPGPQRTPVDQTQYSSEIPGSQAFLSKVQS
aryl hydrocarbon receptor (AhR), sequence (P53762 whole entry partner): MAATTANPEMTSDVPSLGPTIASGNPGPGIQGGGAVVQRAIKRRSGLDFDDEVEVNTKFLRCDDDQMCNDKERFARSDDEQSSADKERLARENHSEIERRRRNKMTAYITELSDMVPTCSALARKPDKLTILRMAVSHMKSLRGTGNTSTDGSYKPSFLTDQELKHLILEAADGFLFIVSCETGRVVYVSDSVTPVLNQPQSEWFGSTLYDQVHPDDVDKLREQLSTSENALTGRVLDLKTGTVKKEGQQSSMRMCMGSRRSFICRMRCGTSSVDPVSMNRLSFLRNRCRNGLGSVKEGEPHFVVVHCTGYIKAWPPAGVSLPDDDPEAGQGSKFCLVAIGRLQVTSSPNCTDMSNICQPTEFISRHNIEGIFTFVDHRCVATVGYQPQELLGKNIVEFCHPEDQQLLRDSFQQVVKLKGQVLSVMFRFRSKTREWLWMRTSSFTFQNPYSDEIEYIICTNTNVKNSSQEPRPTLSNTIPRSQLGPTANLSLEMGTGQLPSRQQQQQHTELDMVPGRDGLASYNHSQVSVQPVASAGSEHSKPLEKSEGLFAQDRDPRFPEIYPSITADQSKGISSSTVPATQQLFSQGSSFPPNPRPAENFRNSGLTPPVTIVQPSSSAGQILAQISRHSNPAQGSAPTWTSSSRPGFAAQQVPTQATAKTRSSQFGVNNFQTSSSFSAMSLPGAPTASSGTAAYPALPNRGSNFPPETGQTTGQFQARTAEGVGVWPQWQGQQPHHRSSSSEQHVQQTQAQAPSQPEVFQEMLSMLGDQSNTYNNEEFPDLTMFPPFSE

O=C(c1ccccc1)n1c(-c2cccc3c2CCCC3)nc2ccc(Cl)cc21 [Compound 778]
Fold @ 1 nM: 1 fold
Fold @ 100 nM: 1 fold
Fold @ 10 uM: 8 fold
Fold relative to benchmark @ 100 nM: 0.04 fold

O=C(c1ccccc1)n1c(-c2ccc(F)cc2)nc2ccc(Cl)cc21 [Compound 493]
Fold @ 1 nM: 1 fold
Fold @ 100 nM: 1 fold
Fold @ 10 uM: 16 fold
Fold relative to benchmark @ 100 nM: 0.03 fold

CCc1ccc(S(=O)(=O)n2c(-c3cccc4ccccc34)nc3cc(Cl)ccc32)cc1 [Compound 775]
Fold @ 1 nM: 1 fold
Fold @ 100 nM: 19 fold
Fold @ 10 uM: 25 fold
Fold relative to benchmark @ 100 nM: 0.76 fold

Cc1ccc2c(c1)nc(-c1cccc3ccccc13)n2C(=O)c1ccccc1 [Compound 701]
Fold @ 1 nM: 1 fold
Fold @ 100 nM: 2 fold
Fold @ 10 uM: 35 fold
Fold relative to benchmark @ 100 nM: 0.08 fold

O=S(=O)(C1CC1)n1c(-c2cccc3ccccc23)nc2ccc(Cl)cc21 [Compound 784]
Fold @ 1 nM: 1 fold
Fold @ 100 nM: 2 fold
Fold @ 10 uM: 34 fold
Fold relative to benchmark @ 100 nM: 0.07 fold

O=c1c2cccc3cccc(c32)c2cc3ccc(Cl)cc3n12 [Compound 405, 7-chloro-10-azapentacyclo[10.7.1.0^2,10.0^4,9.0^16,20]icosa 1(19),2,4(9),5,7,12,14,16(20),17-nonaen-11-one]
Fold @ 1 nM: 8 fold
Fold @ 100 nM: 31 fold
Fold relative to benchmark @ 100 nM: 0.78 fold

O=C(c1ccc(F)c(F)c1)n1c(-c2cccc3ccccc23)nc2cc(OC(F)(F)F)ccc21 [Compound 699]
Fold @ 1 nM: 1 fold
Fold @ 100 nM: 22 fold
Fold @ 10 uM: 24 fold
Fold relative to benchmark @ 100 nM: 0.85 fold

COc1ccc(Cn2c(-c3cccc4ccccc34)nc3cc(Cl)ccc32)cc1 [Compound 852]
Fold @ 1 nM: 1 fold
Fold @ 100 nM: 1 fold
Fold @ 10 uM: 29 fold
Fold relative to benchmark @ 100 nM: 0.03 fold

COC(=O)c1ccc2c(c1)nc(-c1cccc3ccccc13)n2C(=O)c1ccc(OC(F)(F)F)cc1 [Compound 1342]
Fold @ 1 nM: 1 fold
Fold @ 100 nM: 2 fold
Fold @ 10 uM: 2 fold
Fold relative to benchmark @ 100 nM: 0.07 fold

CN1CCN(C(=O)c2ccc3nc(-c4cccc5ccccc45)n(S(=O)(=O)c4cccc(F)c4)c3c2)CC1 [Compound 1393]
Fold @ 1 nM: 1 fold
Fold @ 100 nM: 1 fold
Fold @ 10 uM: 4 fold
Fold relative to benchmark @ 100 nM: 0.03 fold

O=C(c1ccc(F)c(F)c1)n1c(-c2ccc(F)c(Cl)c2)nc2cc(Cl)ccc21 [Compound 580]
Fold @ 1 nM: 1 fold
Fold @ 100 nM: 3 fold
Fold @ 10 uM: 14 fold
Fold relative to benchmark @ 100 nM: 0.2 fold

O=C(c1ccc2c(c1)nc(-c1cccc3ccccc13)n2S(=O)(=O)c1cccc(F)c1)N1CCCCC1 [Compound 1368]
Fold @ 1 nM: 1 fold
Fold @ 100 nM: 2 fold
Fold @ 10 uM: 2 fold
Fold relative to benchmark @ 100 nM: 0.07 fold

O=C(c1cccc2ccccc12)c1c[nH]c2ccc(Cl)cc12 [Compound 364, (5-chloro-1H-indol-3-yl)(naphthalen-1-yl)methanone]
Fold @ 1 nM: 1 fold
Fold @ 100 nM: 2 fold
Fold @ 10 uM: 11 fold
Fold relative to benchmark @ 100 nM: 0.05 fold

CN1CCN(C(=O)c2ccc3nc(-c4cccc5ccccc45)n(Cc4ccc(F)c(F)c4)c3c2)CC1 [Compound 1365]
Fold @ 1 nM: 1 fold
Fold @ 100 nM: 1 fold
Fold @ 10 uM: 2 fold
Fold relative to benchmark @ 100 nM: 0.03 fold

CN(C)c1ccc(C(=O)n2c(-c3cccc4ccccc34)nc3cc(Cl)ccc32)cc1 [Compound 685]
Fold @ 1 nM: 1 fold
Fold @ 100 nM: 13 fold
Fold @ 10 uM: 28 fold
Fold relative to benchmark @ 100 nM: 0.5 fold

O=C(c1ccncc1)n1c(-c2ccccc2)nc2cc(Cl)ccc21 [Compound 432]
Fold @ 1 nM: 1 fold
Fold @ 100 nM: 1 fold
Fold @ 10 uM: 7 fold
Fold relative to benchmark @ 100 nM: 0.03 fold

COC(=O)c1ccc2[nH]c(-c3cccc4ccccc34)nc2c1 [Compound 1360]
Fold @ 1 nM: 1 fold
Fold @ 100 nM: 2 fold
Fold @ 10 uM: 18 fold
Fold relative to benchmark @ 100 nM: 0.07 fold

N#Cc1ccc(C(=O)n2c(-c3cccc4ccccc34)nc3cc(Cl)ccc32)cc1 [Compound 688]
Fold @ 1 nM: 2 fold
Fold @ 100 nM: 28 fold
Fold @ 10 uM: 44 fold
Fold relative to benchmark @ 100 nM: 1.08 fold

COc1ccccc1S(=O)(=O)n1c(-c2cccc3ccccc23)nc2ccc(C(=O)N3CCCCC3)cc21 [Compound 1391]
Fold @ 1 nM: 1 fold
Fold @ 100 nM: 1 fold
Fold @ 10 uM: 1 fold
Fold relative to benchmark @ 100 nM: 0.03 fold

Cn1ncc2c(-c3nc4cc(Cl)ccc4n3C(=O)c3ccc(F)c(F)c3)cccc21 [Compound 860]
Fold @ 1 nM: 1 fold
Fold @ 100 nM: 3 fold
Fold @ 10 uM: 88 fold
Fold relative to benchmark @ 100 nM: 0.1 fold

O=C(c1ccc(F)c(F)c1)n1c(-c2ccc(F)c3ccccc23)nc2cc(Cl)ccc21 [Compound 792]
Fold @ 1 nM: 1 fold
Fold @ 100 nM: 2 fold
Fold @ 10 uM: 19 fold
Fold relative to benchmark @ 100 nM: 0.08 fold

O=C(c1ccc(F)c(F)c1)n1c(-c2c3ccccc3cc3ccccc23)nc2cc(Cl)ccc21 [Compound 641]
Fold @ 1 nM: 1 fold
Fold @ 100 nM: 1 fold
Fold @ 10 uM: 21 fold
Fold relative to benchmark @ 100 nM: 0.11 fold

N#Cc1ccc2c(c1)nc(-c1cccc3ccccc13)n2C(=O)c1ccccc1 [Compound 770]
Fold @ 1 nM: 1 fold
Fold @ 100 nM: 2 fold
Fold @ 10 uM: 2 fold
Fold relative to benchmark @ 100 nM: 0.08 fold

Clc1ccc2c(c1)nc(-c1cccc3ccccc13)n2Cc1ccncc1 [Compound 876]
Fold @ 1 nM: 1 fold
Fold @ 100 nM: 3 fold
Fold @ 10 uM: 32 fold
Fold relative to benchmark @ 100 nM: 0.06 fold

Cn1cc(C(=O)c2cccc3ccccc23)c2cc(Cl)ccc21 [Compound 359, (5-chloro-1-methyl-1H-indol-3-yl)(naphthalen-1-yl)methanone]
Fold @ 1 nM: 1 fold
Fold @ 100 nM: 1 fold
Fold @ 10 uM: 6 fold
Fold relative to benchmark @ 100 nM: 0.03 fold

Fc1ccc(-n2c(-c3cccc4ccccc34)nc3cc(Cl)ccc32)nc1 [Compound 854, 5-chloro-1-(5-fluoropyridin-2-yl)-2-(naphthalen-1-yl)-1H-benzo[d]imidazole]
Fold @ 1 nM: 1 fold
Fold @ 100 nM: 1 fold
Fold @ 10 uM: 4 fold
Fold relative to benchmark @ 100 nM: 0.03 fold

O=C(c1ccc(F)c(F)c1)n1c(-c2cc3ccccc3o2)nc2cc(Cl)ccc21 [Compound 857]
Fold @ 1 nM: 1 fold
Fold @ 100 nM: 12 fold
Fold @ 10 uM: 75 fold
Fold relative to benchmark @ 100 nM: 0.41 fold

O=C(c1ccc(F)c(F)c1)n1c(-c2ccc(Cl)c3ccccc23)nc2ccc(Cl)cc21 [Compound 870]
Fold @ 1 nM: 1 fold
Fold @ 100 nM: 9 fold
Fold @ 10 uM: 74 fold
Fold relative to benchmark @ 100 nM: 0.31 fold

COc1ccc(-c2nc3cc(Cl)ccc3n2C(=O)c2ccccc2)cc1 [Compound 496]
Fold @ 1 nM: 1 fold
Fold @ 100 nM: 1 fold
Fold @ 10 uM: 3.5 fold
Fold relative to benchmark @ 100 nM: 0.03 fold

O=C(c1ccc2nc(-c3cccc4ccccc34)n(S(=O)(=O)c3ccc(Cl)cc3)c2c1)N1CCOCC1 [Compound 1359]
Fold @ 1 nM: 1 fold
Fold @ 100 nM: 1 fold
Fold @ 10 uM: 2 fold
Fold relative to benchmark @ 100 nM: 0.03 fold

Clc1ccc2c(c1)nc1n2Cc2ccccc2-1 [Compound 522, 7-chloro-11H-benzo[4,5]imidazo[2,1-a]isoindole]
Fold @ 1 nM: 1 fold
Fold @ 100 nM: 1 fold
Fold @ 10 uM: 18 fold
Fold relative to benchmark @ 100 nM: 0.07 fold

O=C(c1ccc2nc(-c3cccc4ccccc34)n(Cc3ccc(F)cc3)c2c1)N1CCOCC1 [Compound 1404]
Fold @ 1 nM: 1 fold
Fold @ 100 nM: 1 fold
Fold @ 10 uM: 6 fold
Fold relative to benchmark @ 100 nM: 0.03 fold

Fc1ccc(Cn2c(-c3cccc4ccccc34)nc3cc(Cl)ccc32)cc1F [Compound 887]
Fold @ 1 nM: 1 fold
Fold @ 100 nM: 1 fold
Fold @ 10 uM: 14 fold
Fold relative to benchmark @ 100 nM: 0.02 fold

COC(=O)c1ccc2c(c1)nc(-c1cccc3ccccc13)n2C(=O)c1ccc(Cl)cc1Cl [Compound 1328]
Fold @ 1 nM: 1 fold
Fold @ 100 nM: 2 fold
Fold @ 10 uM: 11 fold
Fold relative to benchmark @ 100 nM: 0.07 fold

O=C(c1ccc(F)c(F)c1)n1c(-c2ccc(F)c(Cl)c2)nc2ccc(Cl)cc21 [Compound 581]
Fold @ 1 nM: 1 fold
Fold @ 100 nM: 1 fold
Fold @ 10 uM: 15 fold
Fold relative to benchmark @ 100 nM: 0.07 fold

N#Cc1ccc(S(=O)(=O)n2c(-c3cccc4ccccc34)nc3cc(C(=O)N4CCCCC4)ccc32)cc1 [Compound 1336]
Fold @ 1 nM: 1 fold
Fold @ 100 nM: 1 fold
Fold @ 10 uM: 6 fold
Fold relative to benchmark @ 100 nM: 0.03 fold
